# Where two headings read alike, the source gives them in different places.
# Experiments:
# [1] = biological target: T1, human recombinant adrenergic α2B receptor (Homo sapiens, UniProt P18089); assay: Radioligand binding, adrenergic α2B ([3H]Rauwolscine); conditions: for Percentage inhibition of ligand binding, Adrenergic α2B (0.1 μM): repeat datapoints each shown
# T1 construct: expressed in transfected cells; host or cells: CHO-K1
# T1 sequence (P18089 1-450): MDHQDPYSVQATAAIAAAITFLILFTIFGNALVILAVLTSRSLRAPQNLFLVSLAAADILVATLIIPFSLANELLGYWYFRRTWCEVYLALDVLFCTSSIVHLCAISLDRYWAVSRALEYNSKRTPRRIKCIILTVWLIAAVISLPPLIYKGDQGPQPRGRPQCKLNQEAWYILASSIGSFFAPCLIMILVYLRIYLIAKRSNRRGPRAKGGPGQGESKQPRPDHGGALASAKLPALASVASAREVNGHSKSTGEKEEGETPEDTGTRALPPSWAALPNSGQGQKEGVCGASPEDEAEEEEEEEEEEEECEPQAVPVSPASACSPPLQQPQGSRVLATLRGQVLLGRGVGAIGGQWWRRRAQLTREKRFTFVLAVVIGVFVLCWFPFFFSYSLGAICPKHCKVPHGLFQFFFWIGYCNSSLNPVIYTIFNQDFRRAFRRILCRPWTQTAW
# Outline: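 Membranes from CHO-K1 cells expressing human recombinant α2B, in 50 mM Tris-HCl pH 7.4, 12.5 mM MgCl2, 1 mM EDTA, 0.2% BSA, incubated with compound and 2.5 nM [3H]Rauwolscine, 60 min, 25 °C.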
# [2] = biological target: T2, human recombinant adrenergic α1D receptor (Homo sapiens, UniProt P25100); assay: Radioligand binding, adrenergic α1D ([3H]Prazosin); conditions: for Percentage inhibition of ligand binding, Adrenergic α1D (0.1 μM): repeat datapoints each shown
# T2 construct: expressed in transfected cells; host or cells: HEK-293
# T2 sequence (P25100 1-572): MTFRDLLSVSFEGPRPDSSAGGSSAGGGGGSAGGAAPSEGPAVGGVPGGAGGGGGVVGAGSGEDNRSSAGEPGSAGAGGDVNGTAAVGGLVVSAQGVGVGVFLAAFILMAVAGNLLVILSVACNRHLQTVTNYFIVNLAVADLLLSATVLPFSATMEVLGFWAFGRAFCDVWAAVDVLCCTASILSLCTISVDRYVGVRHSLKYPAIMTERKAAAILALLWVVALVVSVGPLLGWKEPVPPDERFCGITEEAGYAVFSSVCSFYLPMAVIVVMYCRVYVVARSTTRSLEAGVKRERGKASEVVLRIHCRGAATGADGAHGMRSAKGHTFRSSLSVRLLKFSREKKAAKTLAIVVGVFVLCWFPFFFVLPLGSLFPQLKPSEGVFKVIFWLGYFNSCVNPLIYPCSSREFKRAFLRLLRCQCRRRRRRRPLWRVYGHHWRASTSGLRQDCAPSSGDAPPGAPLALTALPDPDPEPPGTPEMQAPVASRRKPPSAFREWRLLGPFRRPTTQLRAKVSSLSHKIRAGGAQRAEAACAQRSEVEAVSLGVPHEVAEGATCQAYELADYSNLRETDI
# Description: Compounds were incubated with 0.6 nM [^3H]Prazosin for 60 min at 25° C. Non-specific binding was estimated in the presence of 10 μM phentolamine. Receptor proteins were filtered and washed, the filters were then counted to determine [^3H]Prazosin specifically bound. […] Biochemical assay results are presented as the percent inhibition of specific binding in Table B1.
# [3] = biological target: T3, human recombinant adrenergic α2A receptor (Homo sapiens, UniProt P08913); assay: Radioligand binding, adrenergic α2A ([3H]MK-912); conditions: [3H]MK-912
# T3 construct: expressed in transfected cells; host or cells: insect Sf9 cells
# T3 sequence (P08913 1-465): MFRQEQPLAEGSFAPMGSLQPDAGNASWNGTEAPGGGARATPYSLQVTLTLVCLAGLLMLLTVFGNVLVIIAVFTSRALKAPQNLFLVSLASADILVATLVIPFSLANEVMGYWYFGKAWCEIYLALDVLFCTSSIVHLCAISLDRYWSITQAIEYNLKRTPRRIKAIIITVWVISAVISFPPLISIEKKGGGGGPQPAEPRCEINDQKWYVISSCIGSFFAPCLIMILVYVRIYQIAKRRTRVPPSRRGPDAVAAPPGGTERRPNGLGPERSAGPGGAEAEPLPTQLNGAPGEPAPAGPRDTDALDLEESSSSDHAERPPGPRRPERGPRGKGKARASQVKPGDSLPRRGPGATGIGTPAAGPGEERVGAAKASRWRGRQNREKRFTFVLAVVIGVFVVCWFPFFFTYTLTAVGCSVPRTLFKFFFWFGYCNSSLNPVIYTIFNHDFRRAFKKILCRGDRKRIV
# Outline: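 Sf9-expressed receptor was incubated with compound for 60 min at 25 °C in modified Tris-HCl buffer, pH 7.4. Nonspecific binding was taken as that remaining with 10 μM WB-4101.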
# [4] = biological target: T4, rat adrenergic α1B receptor (Rattus norvegicus, UniProt P15823); assay: Radioligand binding, adrenergic α1B ([3H]Prazosin); design: species or system Wistar Rat; conditions: for Percentage inhibition of ligand binding, Adrenergic α1B (0.1 μM): repeat datapoints each shown
# T4 construct: rat adrenergic α1B receptor obtained from Wistar Rat liver; from tissue; host or cells: Wistar rat liver
# T4 sequence (P15823 1-515): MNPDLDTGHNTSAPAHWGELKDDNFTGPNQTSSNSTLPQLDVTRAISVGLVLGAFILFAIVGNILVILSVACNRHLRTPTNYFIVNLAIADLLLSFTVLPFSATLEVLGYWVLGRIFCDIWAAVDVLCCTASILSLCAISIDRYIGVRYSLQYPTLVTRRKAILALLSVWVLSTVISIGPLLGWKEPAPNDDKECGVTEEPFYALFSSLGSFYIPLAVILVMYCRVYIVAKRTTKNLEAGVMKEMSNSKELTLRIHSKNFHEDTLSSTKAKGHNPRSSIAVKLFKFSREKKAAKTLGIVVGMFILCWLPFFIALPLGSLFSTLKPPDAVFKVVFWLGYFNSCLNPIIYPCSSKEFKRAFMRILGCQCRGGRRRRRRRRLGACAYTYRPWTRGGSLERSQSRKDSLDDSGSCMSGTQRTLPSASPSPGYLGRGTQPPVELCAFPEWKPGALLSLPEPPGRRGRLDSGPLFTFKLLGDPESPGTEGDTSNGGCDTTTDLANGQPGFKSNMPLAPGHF
# Outline: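 Filter binding with Wistar rat liver α1B preparation: test compound plus 0.25 nM [3H]prazosin, 1 h at 25° C in modified Tris-HCl buffer pH 7.4.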
# [5] = compound at 0.1 μM, repeat datapoints each shown
compound,measurement,setting,value
Cc1ccc2c(c1)c1c(n2CCc2sccc2C)CCN(C)C1 [compound 308],inhibition at 0.1 µM,"[1]; compound at 0.1 μM, read-out: Percentage inhibition of ligand binding, Adrenergic α2B",97%
same,inhibition at 0.1 µM,"[2]; compound at 0.1 μM, read-out: Percentage inhibition of ligand binding, Adrenergic α1D",56%
same,inhibition at 0.1 µM,"[3]; compound at 0.1 μM, read-out: Percentage inhibition of ligand binding, Adrenergic α2A",86%
same,inhibition at 0.1 µM,"[4]; compound at 0.1 μM, read-out: Percentage inhibition of ligand binding, Adrenergic α1B",79%
"Cc1ccc2c(c1)c1c(n2CC(C)c2ccc(C)nc2)CCN(C)C1 (single isomer, unassigned) [289b]","Percentage inhibition of ligand binding, Adrenergic α2B",[1]; compound at 0.1 μM,54%
same,"Percentage inhibition of ligand binding, Adrenergic α1D","[2]; compound at 0.1 μM, 0.1 µM",−2%
same,"Percentage inhibition of ligand binding, Adrenergic α2A","[3]; compound at 0.1 μM, 0.1 µM",53%
same,"Percentage inhibition of ligand binding, Adrenergic α1B","[4]; compound at 0.1 μM, 0.1 µM",12%
CCC(O)(Cn1c2c(c3cc(C)ccc31)CN(C)CC2)c1ccncc1 (stereo not shown) [35a],"Percentage inhibition of ligand binding, Adrenergic α2B (0.1 μM)",[1]; compound at 0.1 μM,62%
same,"Percentage inhibition of ligand binding, Adrenergic α1D (0.1 μM)",[2]; compound at 0.1 μM,6%
same,"Percentage inhibition of ligand binding, Adrenergic α2A (0.1 μM)",[3]; [5],20%
same,"Percentage inhibition of ligand binding, Adrenergic α1B (0.1 μM)",[4]; compound at 0.1 μM,9%
"CCC(O)(Cn1c2c(c3cc(C)ccc31)CN(C)CC2)c1ccc(F)cc1 (single isomer, unassigned) [34b]","Percentage inhibition of ligand binding, Adrenergic α2B (0.1 μM)","[1]; compound at 0.1 μM, 0.1 µM",1%
same,"Percentage inhibition of ligand binding, Adrenergic α1D (0.1 μM)","[2]; compound at 0.1 μM, 0.1 µM",13%
same,"Percentage inhibition of ligand binding, Adrenergic α2A (0.1 μM)","[3]; compound at 0.1 μM, repeat datapoints each shown, 0.1 µM",3%
same,"Percentage inhibition of ligand binding, Adrenergic α1B (0.1 μM)","[4]; compound at 0.1 μM, 0.1 µM",−2%
"CCCCC(O)(Cn1c2c(c3cc(Cl)ccc31)CN(C)CC2)c1ccc(F)cc1 (single isomer, unassigned) [33a]","Percentage inhibition of ligand binding, Adrenergic α2B (0.1 μM)","[1]; compound at 0.1 μM, 0.1 µM",−3%
same,"Percentage inhibition of ligand binding, Adrenergic α1D (0.1 μM)","[2]; compound at 0.1 μM, 0.1 µM",23%
same,"Percentage inhibition of ligand binding, Adrenergic α1B (0.1 μM)","[4]; compound at 0.1 μM, 0.1 µM",−2%
"CC(Cn1c2c(c3ccccc31)CN(C)CC2)c1ccc(F)cc1 (single isomer, unassigned) [272a]","Percentage inhibition of ligand binding, Adrenergic α2B",[1]; compound at 0.1 μM,−10%
same,"Percentage inhibition of ligand binding, Adrenergic α1D","[2]; compound at 0.1 μM, 0.1 µM",12%
same,"Percentage inhibition of ligand binding, Adrenergic α2A","[3]; compound at 0.1 μM, 0.1 µM",33%
same,"Percentage inhibition of ligand binding, Adrenergic α1B","[4]; compound at 0.1 μM, 0.1 µM",27%
CCC(O)(Cn1c2c(c3cc(C)ccc31)CN(C)CC2)c1ccc(F)cc1 (stereo not shown) [compound 34],inhibition at 0.1 µM,"[1]; read-out: Percentage inhibition of ligand binding, Adrenergic α2B (0.1 μM), compound at 0.1 μM, repeat datapoints each shown",38%
same,inhibition at 0.1 µM,"[2]; read-out: Percentage inhibition of ligand binding, Adrenergic α1D (0.1 μM), compound at 0.1 μM, repeat datapoints each shown",2%
same,inhibition at 0.1 µM,"[3]; read-out: Percentage inhibition of ligand binding, Adrenergic α2A (0.1 μM), compound at 0.1 μM, repeat datapoints each shown",28%
same,inhibition at 0.1 µM,"[4]; read-out: Percentage inhibition of ligand binding, Adrenergic α1B (0.1 μM), compound at 0.1 μM, repeat datapoints each shown",30%
"CCCCC(O)(Cn1c2c(c3cc(Cl)ccc31)CN(C)CC2)c1ccc(F)cc1 (single isomer, unassigned) [33b]","Percentage inhibition of ligand binding, Adrenergic α2B (0.1 μM)","[1]; compound at 0.1 μM, 0.1 µM",2%
same,"Percentage inhibition of ligand binding, Adrenergic α1D (0.1 μM)","[2]; compound at 0.1 μM, 0.1 µM",14%
same,"Percentage inhibition of ligand binding, Adrenergic α2A (0.1 μM)",[3]; [5],−7%
same,"Percentage inhibition of ligand binding, Adrenergic α1B (0.1 μM)","[4]; compound at 0.1 μM, 0.1 µM",0%

# — patent publication US9550782B2, “Compounds and methods for treating diabetes” (Medivation Technologies, Inc., priority 2011, dated 2017)
